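Tested at 5 concentrations; 48 h exposure; 96-well plates; endpoints linearly interpolated, else capped at highest concentration. At the TGI there is no net growth.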 Where a SMILES comes first, the peptide text is derived from it. The star is where a group is joined. Boc = CC(C)(C)OC(=O)*
How the values were obtained:
Test in all cases: DTP human tumour cell line panel, 48 h
[1] = test system: OVCAR-4 ovarian
[2] = test system: DU-145 prostate
[3] = test system: NCI/ADR-RES ovarian
[4] = test system: NCI-H460 lung
[5] = test system: SK-MEL-2 melanoma
[6] = test system: MDA-MB-435
[7] = test system: M14 melanoma
[8] = test system: COLO 205 colon
[9] = test system: HT29 colon
[10] = test system: KM12 colon

Row | Structure (SMILES) | TGI [1] | TGI [2] | TGI [3] | TGI [4] | TGI [5] | TGI [6] | TGI [7] | TGI [8] | TGI [9] | TGI [10]
1 | O=c1nc(N2CCN(c3ccccc3)CC2)ccn1C1OC(CO)C(O)C1O (stereo not given) | > 100 µM | > 100 µM | > 100 µM | > 100 µM | > 100 µM | > 100 µM | > 100 µM | > 100 µM | > 100 µM | > 100 µM
2 | O=C(O)CN(CCNC(=O)OCC1c2ccccc2-c2ccccc21)CCNC(=O)OCC1c2ccccc2-c2ccccc21 | 64.4 µM | 35.8 µM | > 100 µM | 41.2 µM | 46.6 µM | 34.4 µM | 73.4 µM | 40.7 µM | 32.9 µM | 34.7 µM
3 | Cc1c(-c2nc3ccccc3[nH]2)c(=O)n(-c2ccccc2)n1C | > 100 µM | > 100 µM | > 100 µM | > 100 µM | > 100 µM | > 100 µM | > 100 µM | > 100 µM | > 100 µM | > 100 µM
4 | CC(C)c1ccc2[nH]c(O)c(-c3[nH]c4ccccc4c3N=O)c2c1 | 17.6 µM | 20.8 µM | 22 µM | 15.2 µM | 15.1 µM | 20.5 µM | 23.6 µM | 18.1 µM | 15 µM | 15.6 µM
5 | O=C(CCCCCCCCC(=O)NN1C(=O)/C(=C\c2ccc(O)c(O)c2)SC1c1ccc(Cl)cc1)NN1C(=O)/C(=C\c2ccc(O)c(O)c2)SC1c1ccc(Cl)cc1 (stereo not given) | > 100 µM | 81.1 µM | > 100 µM | > 100 µM | > 61.8 µM | > 100 µM | > 100 µM | > 100 µM | > 100 µM | > 100 µM
6 | CC(C)Sc1nc(C#N)cc2c1CCCC2 | > 100 µM | > 100 µM | > 100 µM | > 100 µM | 63.2 µM | > 100 µM | > 100 µM | 50.1 µM | > 100 µM | > 100 µM
7 | O=C(CN1c2ccccc2Sc2ccccc21)N1CCNCC1 | > 100 µM | > 100 µM | > 100 µM | > 100 µM | > 100 µM | > 100 µM | > 100 µM | > 100 µM | > 100 µM | > 100 µM
8 | COC(=O)C1(C(=O)OC)CC2=C(S(=O)(=O)c3ccccc3)C[C@H](S(=O)(=O)c3ccccc3)[C@H]2C1 | > 100 µM | > 100 µM | > 100 µM | > 100 µM | > 100 µM | > 100 µM | > 100 µM | > 100 µM | > 100 µM | > 100 µM
9 | O=C1C(Cl)=C(N2CCN(C3=C(Cl)C(=O)c4ccccc4C3=O)CC2)C(=O)c2ccccc21 | 2.94 µM | 14.4 µM | 3.51 µM | 13.6 µM | 3.34 µM | 3.27 µM | 2.87 µM | 3.1 µM | 5.27 µM | 15.4 µM
10 | COc1cc(O)c(/C=N/N=C(\N)NO)c(OC)c1 | > 10 µM | > 10 µM | > 10 µM | > 10 µM | > 10 µM | > 10 µM | > 10 µM | > 10 µM | > 10 µM | > 10 µM
11 | COCOC1/C=C/CCCCC2=C(C)C=C(C1)O2 (stereo not given) | > 100 µM | > 100 µM | > 100 µM | > 100 µM | > 100 µM | > 100 µM | > 100 µM | > 100 µM | > 100 µM | > 100 µM
12 | COC(=O)CNC(=O)C(Cc1ccccc1)NC(=O)C(CCSC)NC(=O)C(Cc1ccc(O)cc1)NC(=O)OC(C)(C)C (stereo not given) (Boc-YMFG-OMe; configuration not given here) | > 100 µM | > 100 µM | > 100 µM | > 100 µM | 33.1 µM | > 100 µM | > 100 µM | > 100 µM | > 100 µM | > 100 µM
13 | CCOc1cc(NC(C)=O)ccc1C(=O)NNC(=O)c1ccccc1OC(C)=O | > 52.4 µM | > 67.7 µM | > 78.7 µM | 32.9 µM | > 100 µM | > 100 µM | 26.6 µM | > 77.9 µM | > 100 µM | > 100 µM
14 | CCCCN1C(=O)CC2[C@@H]3CCc4cc(OC(C)=O)ccc4C3CC[C@]2(C)C1=O (stereo not given in full) | > 10 µM | > 10 µM | > 10 µM | > 10 µM | > 10 µM | > 10 µM | > 10 µM | > 10 µM | > 10 µM | > 10 µM
15 | CC[C@]1(Cc2ccc(OC)c(OC)c2)CN(S(=O)(=O)c2ccc(C)cc2)C[C@@H]1OC(C)=O | > 100 µM | > 100 µM | > 100 µM | > 100 µM | > 100 µM | > 100 µM | > 100 µM | > 100 µM | > 100 µM | > 100 µM
16 | OCC1CCCCCCCCCCC12SCCCS2 (stereo not given) | > 100 µM | > 100 µM | > 100 µM | > 100 µM | > 100 µM | > 100 µM | > 100 µM | > 100 µM | > 100 µM | > 100 µM
17 | CCCCCCCCCCCCCCCCCCNc1ccn(C2OC(COP(=O)(O)OCC3OC(n4ccc(NC(=O)CCCCCCCCCCCCCCCCC)nc4=O)C(OC(C)=O)C3OC(C)=O)C(OC(C)=O)C2OC(C)=O)c(=O)n1 (stereo not given) | > 100 µM | > 100 µM | > 100 µM | > 100 µM | > 100 µM | > 100 µM | > 100 µM | > 100 µM | > 100 µM | > 100 µM
